Test results taken from US20100022572A1, “NOVEL SPIRO COMPOUND AND MEDICINE COMPRISING THE SAME” (KOWA COMPANY, LTD., priority 2008, published 2010).

Key:
human 11β-HSD1 = biological target: T1, human 11β-HSD1 (Homo sapiens, UniProt P28845); test: Assay of enzyme inhibitory activity, human 11β-HSD1 (lysate of stably expressing HEK293 cells, cortisol ELISA); type: biochemical; conditions: Table 1; human 11β-HSD1, cell lysate, 100 nmol/L substrate, 37° C. 1 hour
T1 construct: The obtained PCR products of about 0.9 kbp, 1.2 kbp, and 0.9 kbp were subcloned into an expression vector pcDNA3.1+/Zeo; made in house
T1 sequence (P28845 whole entry): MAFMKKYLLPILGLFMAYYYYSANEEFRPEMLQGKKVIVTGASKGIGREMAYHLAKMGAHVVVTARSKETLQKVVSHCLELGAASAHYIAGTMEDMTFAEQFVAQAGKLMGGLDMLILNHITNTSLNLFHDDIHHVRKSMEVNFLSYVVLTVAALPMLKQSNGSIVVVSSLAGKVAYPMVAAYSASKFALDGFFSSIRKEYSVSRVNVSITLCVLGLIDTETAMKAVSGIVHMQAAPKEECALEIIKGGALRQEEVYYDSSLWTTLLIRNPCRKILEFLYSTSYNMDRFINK
Procedure: (§1) Human 11β-HSD1-, human 11β-HSD2- and mouse 11β-HSD1-inhibitory effect • 1. Human 11β-HSD1-, Human 11β-HSD2- and Mouse 11β-HSD1-Gene Clonings and Establishment of Stably Expressing Cells
(§2) Human 11β-HSD1-, human 11β-HSD2-, and mouse 11β-HSD1-gene clonings were conducted using as a template a reverse transcription product of human-liver RNA, human-kidney RNA (CELL APPLICATIONS), and mouse-kidney RNA respectively, by means of PCR cloning with reference to nucleotide sequences of Genbank Accession Nos. NM_005525, NM_000196, and NM_008288. The obtained PCR products of about 0.9 kbp, 1.2 kbp, and 0.9 kbp were subcloned into an expression vector pcDNA3.1+/Zeo (Invitrogen).
(§3) Human 11β-HSD1- and human 11β-HSD2-expressing vectors were transfected into human kidney-derived cell line, HEK293 cells, using a transfection reagent, jet PEI (Funakoshi). Mouse 11β-HSD1 was transfected to Chinese hamster ovary-derived cell line, CHO-K1 cells. Selection was conducted with 200-400 μg/mL of zeocine (Invitrogen) to provide stably expressing-cell clones. The stably expressing cells were suspended in buffer solution A (20 mmol/L Tris-HCl, pH 7.4, 250 mmol/L sucrose, 1 mmol/L EGTA, 1 mmol/L EDTA, 1 mmol/L MgCl2), sonicated, and then stored at −80° C. • 2. Assay of Enzyme Inhibitory Activity
(§4) An enzymatic reaction was conducted using a polystyrene 96-well plate. Each well was added with 1 μL of a test agent dissolved in DMSO and then diluted (0.003 to 3 mmol/L), and further added with 10 μL of cell lysate diluted to a concentration of 0.1 mg/mL to 0.4 mg/mL. Next, 90 μL of buffer solution A containing substrate (100 nmol/L cortisone or cortisol) and coenzyme (400 μmol/L NADPH or NAD+) was added and the mixture was incubated at 37° C. for 1 hour. The enzymatic reaction was stopped by treating at 95° C. for 3 minutes. Cortisol that was present in the reaction solution was determined by a competitive ELISA shown below.
(§5) Anti-rabbit IgG antibody (Chemi-con) diluted to 2 μg/mL with carbonate buffer solution (pH 9.6) was added in 100 μL each to a 96-well immuno plate (Nunc) and immobilized by an incubation at 4° C. overnight. 50 μL of enzymatic reaction solution was put onto the plates, and further, anti-cortisol antibody (Cosmo Bio) and HRP-labeled cortisol (Cosmo Bio), diluted with buffer solution B (25 mmol/L Tris-HCl pH 7.4, 137 mmol/L NaCl, 2.68 mmol/L KCl), were added in 50 μL respectively and incubated at 4° C. overnight. After washed three times with buffer solution B containing 0.05% Tween 20, the plates were allowed to develop color by adding 100 μL of color reagent, TMB (Moss). The color reaction was stopped by 25 μL of 1 mol/L sulfuric acid and the absorbance was determined at 450 nm with a microplate reader (Molecular Device, VersaMax).
The values of human 11β-HSD1, human 11β-HSD2, and mouse 11β-HSD1 activities were subtracted from 100, and the resultant values were regarded as the respective 11β-HSD inhibition rates of example compounds. For each example compound, the value of 50% inhibitory concentration (IC50) was calculated from 11β-HSD inhibition rates at plural concentrations, for 11β-HSD1 and activities.

human 11β-HSD2 = biological target: T2, human 11β-HSD2 (Homo sapiens, UniProt P80365); test: Assay of enzyme inhibitory activity, human 11β-HSD2 (lysate of stably expressing HEK293 cells, cortisol ELISA); type: biochemical; conditions: Table 1; human 11β-HSD2, cell lysate, 100 nmol/L substrate, 37° C. 1 hour
T2 construct: The obtained PCR products of about 0.9 kbp, 1.2 kbp, and 0.9 kbp were subcloned into an expression vector pcDNA3.1+/Zeo; made in house
T2 sequence (P80365 1-405): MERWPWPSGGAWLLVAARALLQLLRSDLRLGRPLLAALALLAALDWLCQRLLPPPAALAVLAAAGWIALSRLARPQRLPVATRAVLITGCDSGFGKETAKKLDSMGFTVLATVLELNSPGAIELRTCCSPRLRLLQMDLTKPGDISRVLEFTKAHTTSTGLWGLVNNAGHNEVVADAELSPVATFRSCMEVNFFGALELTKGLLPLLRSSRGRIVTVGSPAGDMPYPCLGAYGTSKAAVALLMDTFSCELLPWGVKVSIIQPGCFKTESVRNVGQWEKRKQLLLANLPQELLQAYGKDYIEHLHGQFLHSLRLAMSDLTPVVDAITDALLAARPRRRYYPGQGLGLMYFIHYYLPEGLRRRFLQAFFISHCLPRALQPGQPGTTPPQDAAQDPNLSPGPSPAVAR
Procedure: as §1, §2, §3, §4
as §5, with “VersaMax). […]” for “VersaMax).”

IC50 (human 11β-HSD1)	IC50 (human 11β-HSD2)	SMILES
0.72 µM	> 30 µM	CCc1ccccc1OCC(=O)N1CCC2(C=Cc3ccccc32)CC1 [Example 3, 2-(2-ethylphenoxy)-1-[spiro(indene-1,4′-piperidine)-1′-yl]ethanone]
0.23 µM	–	O=C(COc1ccccc1C(F)(F)F)N1CCC2(CC1)c1ccccc1CC2O (centres unmarked) [Example 11, 1-[2-hydroxy-2,3-dihydrospiro(indene-1,4′-piperidine)-1′-yl]-2-[2-(trifluoromethyl)phenoxy]ethanone]
1 µM	–	O=C1CC2(CCN(C(=O)COc3ccccc3C(F)(F)F)CC2)c2ccccc21 [Example 13]
0.048 µM	–	CCC1=Cc2ccccc2C12CCN(C(=O)COc1ccccc1C(F)(F)F)CC2 [Example 17, 1-[2-ethylspiro(indene-1,4′-piperidine)-1′-yl]-2-[2-(trifluoromethyl)phenoxy]ethanone]
0.049 µM	–	O=C(COc1ccccc1C(F)(F)F)N1CCC2(CC1)C(Br)=Cc1ccccc12 [Example 23, 1-[2-bromospiro(indene-1,4′-piperidine)-1′-yl]-2-[2-(trifluoromethyl)phenoxy]ethanone]
0.029 µM	> 30 µM	O=C(COc1ccccc1C(F)(F)F)N1CCC2(C=Cc3ccccc32)CC1 [Example 1, 1-[spiro(indene-1,4′-piperidine)-1′-yl]-2-[2-(trifluoromethyl)phenoxy]ethanone]
0.34 µM	–	CC(C)C1=Cc2ccccc2C12CCN(C(=O)COc1ccccc1C(F)(F)F)CC2 [Example 19, 1-[2-isopropylspiro(indene-1,4′-piperidine)-1′-yl]-2-[2-(trifluoromethyl)phenoxy]ethanone]
0.12 µM	–	CC1Cc2ccccc2C12CCN(C(=O)COc1ccccc1C(F)(F)F)CC2 (centres unmarked) [Example 25, 1-[2-methyl-2,3-dihydrospiro(indene-1,4′-piperidine)-1′-yl]-2-[2-(trifluoromethyl)phenoxy]ethanone]
0.025 µM	–	O=C(COc1ccccc1C(F)(F)F)N1CCC2(CCc3ccccc32)CC1 [Example 10, 1-[2,3-dihydrospiro(indene-1,4′-piperidine)-1′-yl]-2-[2-(trifluoromethyl)phenoxy]ethanone]
0.066 µM	–	CC1=CC2(CCN(C(=O)COc3ccccc3C(F)(F)F)CC2)c2ccccc21 [Example 24, 1-[3-methylspiro(indene-1,4′-piperidine)-1′-yl]-2-[2-(trifluoromethyl)phenoxy]ethanone]
0.11 µM	> 30 µM	O=C(COc1ccccc1I)N1CCC2(C=Cc3ccccc32)CC1 [Example 4, 2-(2-iodophenoxy)-1-[spiro(indene-1,4′-piperidine)-1′-yl]ethanone]
0.043 µM	–	CC1=Cc2ccccc2C12CCN(C(=O)COc1ccccc1C(F)(F)F)CC2 [Example 16, 1-[2-methylspiro(indene-1,4′-piperidine)-1′-yl]-2-[2-(trifluoromethyl)phenoxy]ethanone]
0.24 µM	–	CCCC1=Cc2ccccc2C12CCN(C(=O)COc1ccccc1C(F)(F)F)CC2 [Example 18, 1-[2-propylspiro(indene-1,4′-piperidine)-1′-yl]-2-[2-(trifluoromethyl)phenoxy]ethanone]
0.088 µM	–	O=C(COc1ccccc1C(F)(F)F)N1CCC2(CC1)C(C1CC1)=Cc1ccccc12 [Example 20, 1-[2-cyclopropylspiro(indene-1,4′-piperidine)-1′-yl]-2-[2-(trifluoromethyl)phenoxy]ethanone]
0.03 µM	–	O=C(COc1ccccc1C(F)(F)F)N1CCC2(CC1)C(Cl)=Cc1ccccc12 [Example 22, 1-[2-chlorospiro(indene-1,4′-piperidine)-1′-yl]-2-[2-(trifluoromethyl)phenoxy]ethanone]
0.077 µM	> 30 µM	O=C(COc1ccccc1C(F)(F)F)N1CCC2(CC1)C(=O)Cc1ccccc12 [Example 12, 1′-[2-[2-(trifluoromethyl)phenoxy]acetyl]spiro(indene-1,4′-piperidine)-2(3H)-one]
